Patent publication US9090583B2, “Benzopyrone estrogen receptor regulator” (BEIJING SHENOGEN PHARMA GROUP LTD., priority 2010, dated 2015)
Where two headings read alike, the source gives them in different places.

Columns and labels:
MDA-MB-231 cells = assay: CellTiter-Glo Luminescent Cell Viability Assay on ER-negative breast cancer MDA-MB-231 cells; assay type: cell-based; details: average ± standard deviation when tested more than 3 times, read-out: Inhibition of the viability of breast cancer cells, IC50
Description: A: In Vitro CellTiter-Glo® Luminescent Cell Viability Assay on ER-Negative Breast Cancer MDA-MB-231 Cells:
MDA-MB-231 cells were maintained at 37° C., under 5% CO2 atmosphere in DMEM containing 10% fetal calf serum. The cells were seeded on 96-well plate at a density of 6×10^3 cells per well. MDA-MB-231 cells were treated with a test compound dissolved in DMSO at the concentrations of zero, 0.3 μM, 0.5 μM, 1 μM, 2 μM, 3 μM, 5 μM, 10 μM, 20 μM, 30 μM, 50 μM and 100 μM for 72 hours. Treated cells were examined by CellTiter-Glo® Luminescent Cell Viability Assay Kit (Promega), and luminescence values were recorded with Envision.

MCF7 cells = assay: CellTiter-Glo Luminescent Cell Viability Assay on ER-positive breast cancer MCF-7 cells; assay type: cell-based, human; details: average ± standard deviation when tested more than 3 times, read-out: Inhibition of the viability of breast cancer cells, IC50
Source text: B: In Vitro CellTiter-Glo® Luminescent Cell Viability Assay on ER-Positive Breast Cancer MCF-7 Cells:
MCF7 cells are breast cancer cell lines that highly express ER-66, ER-46 and ER-36. (Relevance of breast cancer cell lines as models for breast tumours: an update. Marc Lacroix, Guy Leclercq, Breast Cancer Research and Treatment (2004) 83, 249-289; Wang et al., Proc. Natl. Acad. Sci. U.S.A. 103:9063-9068 (2006)). MCF7 cells were obtained from ATCC and maintained in Dulbecco's Modified Eagles Medium (DMEM) and 10% fetal calf serum at 37° C., under 5% CO2 atmosphere. The cells were seeded on 96-well plate at a density of 6×10^3 cells per well. MCF7 cells were treated with a test compound dissolved in DMSO at the concentrations of zero, 0.3 μM, 0.5 μM, 1 μM, 2 μM, 3 μM, 5 μM, 10 μM, 20 μM, 30 μM, 50 μM and 100 μM for 72 hours. Treated cells were examined by CellTiter-Glo® Luminescent Cell Viability Assay Kit (Promega), and luminescence values were recorded with Envision.

Row | IC50 (MDA-MB-231 cells; Homo sapiens, MDA-MB-231, 72 h) [µM] | IC50 (MCF7 cells; Homo sapiens, MCF7, 72 h) [µM] | IC50 (MDA-MB-231 cells; 72 hours) [µM] | IC50 (MCF7 cells; 72 hours) [µM] | Compound
1 | 28.8 | 20.1 | – | – | CCOc1ccc(-c2oc3c(CC=C(C)C)c(O)c(CC=C(C)C)c(O)c3c(=O)c2OC)cc1F [Compound 23, 2-(3-fluoro-4-ethoxylphenyl)-5,7-dihydroxy-3-methoxy-6,8-di(3-methyl-2-buten-1-yl)-4H-benzopyran-4-one]
2 | – | – | 13.7 ± 1.99 | 27.4 | COc1c(-c2ccc3ccccc3c2)oc2c(CC=C(C)C)c(O)c(CC=C(C)C)c(O)c2c1=O [Compound 19, 2-(naphthalen-2-yl)-5,7-dihydroxy-3-methoxy-6,8-di(3-methyl-2-butylene-1-yl)-4H-benzopyran-4-one]
3 | – | – | 77.2 | > 100 | 2-(piperazin-2-yl)-5,7-dihydroxy-3-methoxy-6,8-di(3-methyl-2-buten-1-yl)-4H-benzopyran-4-one [Compound 30]
4 | 5.96 | 29.2 | – | – | COc1c(-c2ccc(C(=O)O)cc2)oc2c(CC=C(C)C)c(O)c(CC=C(C)C)c(O)c2c1=O [Compound 56, 4-[5,7-dihydroxy-3-methoxy-6,8-di(3-methyl-2-butenyl)-4-oxo-4H-benzopyran-2-yl]benzoic acid]
5 | 14.2 ± 5.18 | 16 | – | – | COc1ccc(-c2oc3c(CC=C(C)C)c(O)c(CC=C(C)C)c(O)c3c(=O)c2OC)cc1F [Compound 1, 2-(3-fluoro-4-methoxyphenyl)-5,7-dihydroxy-3-methoxy-6,8-di(3-methyl-2-buten-1-yl)-4H-benzopyran-4-one]
6 | > 100 | > 100 | – | – | COc1c(-c2ccnc(F)c2)oc2c(CC=C(C)C)c(O)c(CC=C(C)C)c(O)c2c1=O [Compound 51, 2-(2-fluoropyridin-4-yl)-5,7-dihydroxy-3-methoxy-6,8-di(3-methyl-2-buten-1-yl)-4H-benzopyran-4-one]
7 | 8.34 ± 1.63 | 7.04 ± 1.43 | – | – | COc1c(-c2ccc(Cl)nc2)oc2c(CC=C(C)C)c(O)c(CC=C(C)C)c(O)c2c1=O [Compound 52, 2-(6-chloropyridin-3-yl)-5,7-dihydroxy-3-methoxy-6,8-di(3-methyl-2-buten-1-yl)-4H-benzopyran-4-one]
8 | 26.3 | > 100 | – | – | COc1c(CC=C(C)C)c(OC)c2c(=O)c(OC)c(-c3ccc(Cl)c(F)c3)oc2c1CC=C(C)C [Compound 82B, 2-(3-fluoro-4-chlorophenyl)-3,5,7-trimethoxy-6,8-di(3-methyl-2-buten-1-yl)-4H-benzopyran-4-one]
9 | > 100 | 5.12 | – | – | COc1c(-c2ccc(N(C)C)cc2)oc2c(CC=C(C)C)c(O)c(CC=C(C)C)c(O)c2c1=O [Compound 59, 2-(4-dimethylaminophenyl)-5,7-dihydroxy-3-methoxy-6,8-di(3-methyl-2-buten-1-yl)-4H-benzopyran-4-one]
10 | > 100 | 22.2 | – | – | COc1c(-c2ccco2)oc2c(CC=C(C)C)c(O)c(CC=C(C)C)c(O)c2c1=O [Compound 41, 2-(furan-2-yl)-5,7-dihydroxy-3-methoxy-6,8-di(3-methyl-2-buten-1-yl)-4H-benzopyran-4-one]
11 | > 100 | 12 | – | – | COc1c(-c2ccccn2)oc2c(CC=C(C)C)c(O)c(CC=C(C)C)c(O)c2c1=O [Compound 29, 2-(pyridin-2-yl)-5,7-dihydroxy-3-methoxy-6,8-di(3-methyl-2-buten-1-yl)-4H-benzopyran-4-one]
12 | > 100 | > 100 | – | – | COc1c(-c2cocn2)oc2c(CC=C(C)C)c(O)c(CC=C(C)C)c(O)c2c1=O [Compound 44, 2-(oxazol-4-yl)-5,7-dihydroxy-3-methoxy-6,8-di(3-methyl-2-buten-1-yl)-4H-benzopyran-4-one]
13 | > 100 | > 100 | – | – | CC(C)=CCc1c(O)c(CC=C(C)C)c2oc(-c3ccc(F)c(F)c3)cc(=O)c2c1O [Compound 85, 2-(3,4-difluorophenyl)-5,7-dihydroxy-6,8-di(3-methyl-2-buten-1-yl)-4H-benzopyran-4-one]
14 | 21.4 | – | – | – | CC(C)=CCc1c(O)c(CC=C(C)C)c2oc(-c3ccc(F)cc3)c(O)c(=O)c2c1O [Compound 97, 2-(4-fluorophenyl)-3,5,7-trihydroxy-6,8-di(3-methyl-2-buten-1-yl)-4H-benzopyran-4-one]
